According to US20050009151A1, “Methods for the stereospecific and enantiomeric enrichment of beta-amino acids” (Pharmacia Corporation, priority 2003, published 2005):

Experiments:
[1] = system: α-alanine aminotransferase; settings: J. Biochem 81, 1375-1381, 1977; cited from earlier work
[2] = system: gamma aminobutyrate transaminase; settings: J. Biochem 81, 1375-1381, 1977; cited from earlier work
[3] = system: Alcaligenes eutrophus L-β-aminotransferase; test: Amino donor screen, production of β-phenylalanine from 3-keto-3-phenylpropionic acid; assay type: biochemical; settings: 200 mM amino donor, pyruvate decarboxylase, 24 hours
Experimental: The assays contained: 0.1-0.3 mg/ml protein, 10 mg/ml keto acceptor, 200 mM amino donor, 0.1 mM pyridoxal phosphate, and 100 mM potassium phosphate, at pH 8.0. 0.1 units of pyruvate decarboxylase was included to prevent the reversible reaction from reaching equilibrium. The reactions were run at 37° C. with gentle stirring for 24 hours. At 24 hours reaction time, 0.1 ml samples were withdrawn, acidified with addition of 0.1 ml 0.1N HCl, and centrifuged. The supernatant solution was collected into HPLC sample vials. Conversion of amino acid to the corresponding ketone was quantified using reverse phase HPLC. Amino donors screened were (L)-alanine, (D)-alanine, and β-alanine.

[4] = system: β-aminotransferase from Alcaligenes eutrophus; test: Synthesis of β-amino acid from β-keto acid with cell lysate from Alcaligenes eutrophus; assay type: biochemical; settings: approximately 45 mM substrate, approximately 84 mM alanine, 47 hours
Experimental: A buffer consisting of 0.3M Tricine, 15 mM MgSO4, enough pyridoxal phosphate to impart a pale yellow color and 0.3M sodium glutamate (for deamination reactions) or 0.3 M 2-ketoglutarate monopotassium salt (for synthesis reactions) was prepared.
[…] Reactions were typically run at 1 ml scale with gentle shaking at 26° C.
10 ul of 2N HCl was added to a plastic screw capped vial and 90ul of sample was then added. The pH of the mixture confirmed to be below 4 and the mixture was centrifuged in a microcentrifuge at maximum speed for about 2 minutes to remove precipitated materials.
Samples were derivatized using Marfey's reagent, N•-(2,4-dinitro-5-fluorophenyl)-L-alaninamide. A stock solution of 10 mg/mL in acetone of this reagent was prepared. Either 20 or 40 ul of bioconversion sample was added to 20 ul 1.3 M KHCO3. To this was added 80 ul of the stock reagent solution, the vial sealed tightly, and heated at 70° C. for 10 minutes. As needed, after cooling to room temperature, the heated samples were centrifuged to remove solids. The supernatants were analyzed using an Eclipse XDB-C8 column, 4.6×150 mm, eluting with methanol gradient in water, from 50% methanol to 100% methanol. Both solvents were acidified with 0.1% trifluoroacetic acid. […]

Structure (SMILES) | activity on substrate [1] | activity on substrate [2] | utilized by the enzyme as an amino donor in the production of β-phenylalanine [3] | 2-fluoro-beta-phenylalanine formed, using beta-phenylalanine as standard [4]
NCCC(=O)O [β-alanine] | 100 | 3 | Only (L)-alanine was utilized by the enzyme | 
C[C@H](N)C(=O)O [(L)-alanine] |  |  | utilized by the enzyme as an amino donor | 
C[C@@H](N)C(=O)O [(D)-alanine] |  |  | Only (L)-alanine was utilized by the enzyme | 
NCCCC(=O)O [gamma aminobutyrate] | 43 | 100 |  | 
O=C(O)CC(=O)c1ccccc1F [3-(2-Fluorobenzene)beta-oxopropanoic acid] |  |  |  | approximately 0.1 mg/mL
